Values after ≈ are worked out from the molar mass of the structure shown.
How the values were obtained:
[1] = system: isolated guinea pig lung strips, Platelet activating factor (PAF); assay: antagonist of PAF-induced contraction of isolated guinea pig lung strips; type: cell-based; conditions: Cavia porcellus, read-out: Anticontractile action (lung), PAF: concentration range corresponding to the IC50 value
From the text: (§1) 4. Activity as an antagonist of the contraction of isolated guinea pig lung strips
(§2) The test carried out is based on the same principle as the test indicated in the pharmacological test 3; however, lung strips are used here.
(§3) Preparation of the organ sections and experimental procedure:
(§4) The guinea pig is sacrificed under laughing gas anaesthesia. The entire pulmonary tract is exposed starting from the trachea. The lobes of the lung are cut in a circular fashion such that 3 mm wide strips are formed. The strips of the upper lobes are divided in order to obtain a total of six approximately equal size strips. The strips are suspended in the organ baths under a preload of 4 g. The nutrient solutions used are modified Krebs Henseleit solutions. When using "Platelet activating factor" (PAF) as an […], the composition of this solution corresponds to that for the agonist SP in "Test 3"; for the agonist LTD4 a Krebs Henseleit solution as in the case of the agonist KCl (Test 3) is used. 95% by volume O2, 5% by volume CO2 is used for bubbling through the bath; the bath temperature is 37° C. The experimental procedure is carried out in a therapeutically cumulative methodology, using the dosage graduations 1, 3, 6 and 10 μg/ml.
(§5) The experimental animals, organ bath, vehicles and manner of administration correspond to that stated in pharmacological test 3.
(§6) All numerical values are indicated in the unit μg/ml and relate to the concentration range of tested compound of the formula I (see example numbers in Table 1) which is necessary in order to cause a contraction which corresponds to the IC50 value.

phosphodiesterase III = assay: inhibition of phosphodiesterase III activity; type: biochemical; conditions: at 100 μM
Protocol: 5. Inhibition of phosphodiesterase III activity
The test is carried out using phosphodiesterase from Boehringer Mannheim (Mannheim, Germany), Order No. 108 243 according to the method of T. SAEKI, I. SAITO, Biochem. Pharm. 46, No. 5, […], pages 833-839.
All numerical values are indicated in % inhibition of the enzyme activity at 100 μM of the corresponding compound of the formula I.

[2] = system: muscle group (gastrocnemius, plantaris and soleus) of the immobilized right rear extremity; assay: rat muscle function test: direct electrical stimulation of muscle group after 3 weeks' immobilization; type: in vivo, male Wistar rats; conditions: oral, 1x per day for 3 weeks, as a rule 25 mg/kg, ≤-12% classified as active; for Force (force under the contraction curve, right/left difference): isometric stimulation, control difference approx. 25%; for Work (performed work, right/left difference): isotonic stimulation, control approx. -25%
From the text: (§7) 1. Activity in the rat muscle function test
(§8) Male Wistar rats (body weight about 300 g) were kept under standard conditions with feed and water ad libitum. The right rear extremity was immobilized by fitting a kind of "shoe" to the animals under short-term anaesthesia. Two ergonomically fitted halves of the "shoe" were cast from a liquid plastic material which is also used for the production of dental prostheses, these were put onto the animal under brief anaesthesia and joined with the aid of a wire. The material is light but hard, so that the animals cannot gnaw the material, and the "shoe" can be opened at any time to examine the condition of the immobilized extremity. The two halves were moreover padded out with chamois leather in order to avoid compressions and possible injuries due to rubbing. The system also has the advantage that the angle of immobilization is standardized in all animals; this would not be possible with a plaster cast. The chosen angle allows the animals to take up a normal sitting position despite the "shoe" and also to carry the body weight using this extremity. Only complete stretching or bending of the leg is impossible.
(§9) After 3 weeks' immobilization of the right rear extremity and simultaneous oral administration of test preparations (1× per day using a stomach tube; as a rule 25 mg/kg of body weight, in carboxymethylcellulose, the animals were weighed and anaesthetized with pentobarbital (35 mg/kg i.p.). Functional parameters were measured during direct electrical stimulation of a muscle group (gastrocnemius, plantaris and soleus). This muscle group, merely called "muscle" in the following, was exposed at the ankle tendon and tied to a force transducer via the tendon.
To determine the contractile force, the muscles were stimulated isometrically, i.e. a preload of 0.5N was applied and the muscle was stimulated by means of a series of electrical pulses, which led to a maximum contraction, every 0.7 sec for 80 msec for a period of 15 min. […] The area under this contraction curve was evaluated and the difference in percent between the right atrophic and left normal muscle compared (force under the contraction curve as difference in percent (Δ%)). The difference in the control group is approximately 25%.
An isotonic muscle stimulation was used to determine the performed work of the muscle over time. In this type of measurement, the shortening of the muscle during contraction is used as a basis. To this end, a preload which corresponds to the body weight was applied to the muscles. A series of stimulation pulses (80 msec) were triggered every 3 sec and the muscle was stimulated for 15 min. The data (contraction force and distance travelled) were converted to the work performed in the unit J using an automated system. The difference in the work performed between the immobilized atrophic and the normal muscle in the control animals was approximately -25%.
Values which are positive indicate that the functional parameters of the immobilized muscle were better than those of the contralateral normal muscle.

soleus muscle = assay: rat muscle function test: muscle weight (atrophy of immobilized extremity); type: in vivo, male Wistar rats; conditions: oral, 1x per day for 3 weeks, as a rule 25 mg/kg, difference ≤25% classified as an effect
From the text: as §7, §8
In spite of this, a significant decrease in the skeletal muscle mass (atrophy) of the immobilized extremity occurred, to be precise up to -35% in comparison with the contralateral nonimmobilized rear extremity. As the soleus muscle was the most severely affected, the changes in muscle weight after administration of preparation shown in Table 1 relate to this muscle. A difference of ≤25% between the right immobilized and left non-immobilized rear extremity was classified as an effect.
as §9

[3] = system: isolated guinea pig trachea, agonist substance P; assay: antagonist of substance P-induced contraction of isolated guinea pig trachea; type: cell-based; conditions: Cavia porcellus, individual doses, 37° C., read-out: Anticontractile action (trachea), SP antagonism: concentration range for dilatation corresponding to ED50 range
From the text: 3. Activity as antagonist of the contraction of isolated guinea pig trachea
The compounds of the formula I are used as antagonists of the contraction of isolated guinea pig trachea. The agonists employed were PGF2α (Upjohn, Germany), calcium ionophore A23187 (Calbiochem, Bad Soden, Germany), and substance P (American Peptide Comp., USA):
The antagonism is possible on the one hand due to specific receptor antagonists, and on the other hand also due to inhibition of the subsequent signal pathway. Preparations which directly or indirectly increase the intracellular concentration of cyclic nucleotides in particular show spasmolytic properties here.
as §3
The guinea pig is sacrificed by means of terminal laughing gas anaesthesia. The trachea is exposed along its entire length and cut into 15 individual cartilage rings. 5 rings in each case are tied together to give a chain and fixed in the organ bath under a preload of 3 g. After an equilibration time of 45 minutes, a contraction is produced using the agonist. The antagonist (test preparation) is added cumulatively on the plateau of the maximum. Evaluation is carried out in % force change relative to the contraction maximum. The experimental procedure is carried out at 37° C.; the physiological nutrient solution used is a modified Krebs-Henseleit solution through which is bubbled 95% by volume of O2, 5% by volume of CO2.
Experimental animals: albino guinea pigs (Hattersheim Animal Breeding Institute, Kastengrund, Germany), weight: 200 to 300 g, sex male or female.
Vehicle: double-distilled water, ethanol or isopropanol; administration: into the organ bath number of administration: cumulative, in SP individual doses
All numerical values are indicated in the unit μg/ml and relate to the concentration range of the tested compound of the formula I according to the invention (see example numbers in Table 1) which is necessary in order to cause a dilatation which corresponds to the ED50 range.

[4] = system: isolated guinea pig lung strips, leukotriene D4 (LTD4); assay: antagonist of LTD4-induced contraction of isolated guinea pig lung strips; type: cell-based; conditions: Cavia porcellus, read-out: Anticontractile action (lung), LTD4: concentration range corresponding to the IC50 value
From the text: as §1, §2, §3, §4, §5, §6

SMILES | IC50 [1] | PDE III Inhibition (phosphodiesterase III) | Force (force under the contraction curve, right/left difference) [2] | Work (performed work, right/left difference) [2] | Muscle weight (right/left difference) (soleus muscle) | EC50 [3] | IC50 [4]
CCCn1cnc2c1c(=O)n(CCCP(=O)(OCC)OCC)c(=O)n2C [Example 55, Diethyl [3-(3-methyl-7-propylxanthin-1-yl)propyl]phosphonate] | 1 to 3 µg/mL (≈ 2.59 to 7.76 µM) | 59% | – | – | – | – | –
CCCCn1cnc2c1c(=O)n(CCCCCP(=O)(OCC)OCC)c(=O)n2C [Example 48, Diethyl [5-(7-butyl-3-methylxanthin-1-yl)pentyl]phosphonate] | – | 52% | -3 Δ % | -7 Δ % | 0 Δ % | – | –
CCOP(=O)(CCCCn1cnc2c1c(=O)n(CCC(C)C)c(=O)n2C)OCC [Example 15, Diethyl [4-(1-(3-methylbutyl)-3-methylxanthin-7-yl)butyl]phosphonate] | – | – | +5 Δ % | +2 Δ % | 0 Δ % | 30 to 60 µg/mL (≈ 70 to 140 µM) | –
CCOP(=O)(CCCn1c(=O)c2c(ncn2C(C)C)n(C)c1=O)OCC [Example 47] | – | 64% | – | -6 Δ % | 0 Δ % | 10 to 30 µg/mL (≈ 25.9 to 77.6 µM) | –
CCOP(=O)(CCCn1c(=O)c2c(ncn2C)n(C)c1=O)OCC [Example 33, Diethyl [3-(3,7-dimethylxanthin-1-yl)propyl]phosphonate] | 3 to 6 µg/mL (≈ 8.37 to 16.7 µM) | – | -7 Δ % | -10 Δ % | -16 Δ % | 10 to 30 µg/mL (≈ 27.9 to 83.7 µM) | –
CCOP(=O)(CCCCCn1c(=O)c2c(ncn2CC)n(C)c1=O)OCC [Example 20, Diethyl 5-(7-ethyl-3-methylxanthin-1-yl)pentylphosphonate] | – | 65% | – | – | – | 10 to 30 µg/mL (≈ 25 to 74.9 µM) | –
CCCn1cnc2c1c(=O)n(CCCCCP(=O)(OCC)OCC)c(=O)n2C [Example 17, Diethyl [5-(3-methyl-7-propylxanthin-1-yl)-pentyl]phosphonate] | 1 to 3 µg/mL (≈ 2.41 to 7.24 µM) | 77% | +2 Δ % | -10 Δ % | 0 Δ % | 30 to 60 µg/mL (≈ 72.4 to 145 µM) | 1 to 3 µg/mL (≈ 2.41 to 7.24 µM)
CCOP(=O)(CCCn1c(=O)c2c(ncn2CC2CC2)n(C)c1=O)OCC [Example 46, Diethyl [3-(7-cyclopropylmethyl-3-methylxanthin-1-yl)propyl]phosphonate] | – | 67% | +1 Δ % | +9 Δ % | -17 Δ % | – | –
CCCn1cnc2c1c(=O)n(CCCCCP(=O)(OCC)OCC)c(=O)n2CC [Example 57, Diethyl [5-(3-ethyl-7-propylxanthin-1-yl)pentyl]phosphonate] | – | 70% | -5 Δ % | -8 Δ % | -17 Δ % | – | –
CCCn1c(=O)c2c(ncn2CCCP(=O)(OCC)OCC)n(CCC)c1=O [Example 9, Diethyl [3-(1,3-dipropylxanthin-7-yl)propyl]phosphonate] | – | – | – | – | – | 10 to 30 µg/mL (≈ 24.1 to 72.4 µM) | 3 to 6 µg/mL (≈ 7.24 to 14.5 µM)
CCOP(=O)(CCCCCn1c(=O)c2c(ncn2Cc2ccccc2)n(C)c1=O)OCC [Example 43, Diethyl [5-(7-benzyl-3-methylxanthin-1-yl)pentyl]phosphonate] | 1 to 3 µg/mL (≈ 2.16 to 6.49 µM) | 52% | – | – | – | – | 1 to 6 µg/mL (≈ 2.16 to 13 µM)
CCOP(=O)(CCCCCn1c(=O)c2c(ncn2CC2CC2)n(C)c1=O)OCC [Example 49, Diethyl [5-(7-cyclopropylmethyl-3-methylxanthin-1-yl)pentyl]phosphonate] | – | 57% | -5 Δ % | -5 Δ % | -25 Δ % | – | 3 to 6 µg/mL (≈ 7.03 to 14.1 µM)
CCCn1cnc2c1c(=O)n(CCCCP(=O)(OCC)OCC)c(=O)n2C [Example 32, Diethyl [4-(3-methyl-7-propyl-xanthin-1-yl)butyl]phosphonate] | 6 to 10 µg/mL (≈ 15 to 25 µM) | 65% | -9 Δ % | -1 Δ % | 0 Δ % | 10 to 30 µg/mL (≈ 25 to 74.9 µM) | 6 to 10 µg/mL (≈ 15 to 25 µM)

— patent publication US5728686A, “Alkylxanthine phosphonates and alkylxanthine phosphine oxides and their use as pharmaceuticals” (Hoechst Aktiengesellschaft, priority 1996, dated 1998)
